Experimental data from patent US9017713B2, “Magnetic carrier and medical preparation for controllable delivery and release of active substances, methods of their production and methods of treatment using thereof” (priority 2006, dated 2015).

Assays:
[1] = Desorption of pharmaceutical from heat-sensitive polymer film on magnetic carrier by cooling below LCST; type: physicochemical; settings: Fe0.49Rh0.51 plates with graphite layer, film of copolymer NIPAAm with 35 mol % tBuAM; cooled below LCST to 15.9° C.
Method: The method may be realized, for example, as follows: quenched magnetic material Fe0.49Rh0.51 covered with a heat-sensitive polymer together with a pharmaceutical (for example, anti-inflammatory) in the form of particles in of about 150-200 nm is administered inside of an organism through a catheter and delivery of the aforementioned particles is performed to a target organ or a tissue. Magnetic field of 2 T is applied on the area, where the particles are concentrated. The magnetic material is cooled by 13° C., which results in refrigerating of a heat-sensitive polymer, for example (co)polymer N-iso-propyl acrylamide, down to temperature below LCST, in this case down to 24° C., and desorption of the pharmaceutical from the surface of heat-sensitive polymer takes place.
A procedure analogous to that described in Example 4, but administration of a pharmaceutical Adriablastin in an organism is made, when the magnetic carrier represents alloy of iron-rhodium Fe0.49Rh0.51, which surface is covered with copolymer NIPAAm with 35 mol % of tBuAM film, with alloy surface preliminary covered with a thin protective graphite layer (preventing oxidation); the magnetic material is prepared in the form of plates. […]

[2] = F 127 ferrofluid gel, constant magnetic field; cited from earlier work

Row | Time of desorption [1] [min] | Compound | Increase of release after application of magnetic field to the gel [2] [%]
1 | 30 ± 5 | COc1cccc2c1C(=O)c1c(O)c3c(c(O)c1C2=O)C[C@@](O)(C(=O)CO)C[C@@H]3O[C@H]1C[C@H](N)[C@H](O)[C@H](C)O1 [Adriablastin] | 
2 |  | vitamin B12 | 20
